In US20090029949A1, “GPCR Ligands Identified by Computational Modeling” (priority 2006, published 2009):

What was measured:
S1P1 mutant M3.32K = molecular target: T1, S1P1 mutant M3.32K (Homo sapiens, UniProt P21453, M124K); test: [35S]GTPγS binding, S1P1 M3.32K; format: biochemical; conditions: S1P-induced, S1P1 M3.32K in RH7777 cells
T1 construct: expressed in transfected cells; host or cells: RH7777
Procedure: (§1) RH7777 and HEK-293 cells (ATCC, Manassas, Va.) were maintained in Dulbecco's modified minimal essential medium (DMEM) containing 10% fetal bovine serum (Hyclone, Logan, Utah). Cells (2×10^6) were transfected with 2 μg of plasmid DNA with Effectene (Qiagen, Valencia, Calif.) according to the manufacturer's instructions, for 24 h. Before ligand binding and receptor activation assays, the cells were washed twice with serum-free DMEM and serum-starved for at least 6 h.
(§2) S1P1 Receptor Activation Assays Receptor functional assays were performed in transiently transfected RH7777 cells by measuring S1P-activated [^35S]GTPγS binding as previously described (28).

S1P1 mutant V3.40T = molecular target: T2, S1P1 mutant V3.40T (Homo sapiens, UniProt P21453, V132T); test: [35S]GTPγS binding, S1P1 V3.40T; format: biochemical; conditions: S1P-induced, S1P1 V3.40T in RH7777 cells
T2 construct: expressed in transfected cells; host or cells: RH7777 (transient, pcDNA3.1)
Procedure: as §1, §2

T1 sequence (P21453 whole entry M124K): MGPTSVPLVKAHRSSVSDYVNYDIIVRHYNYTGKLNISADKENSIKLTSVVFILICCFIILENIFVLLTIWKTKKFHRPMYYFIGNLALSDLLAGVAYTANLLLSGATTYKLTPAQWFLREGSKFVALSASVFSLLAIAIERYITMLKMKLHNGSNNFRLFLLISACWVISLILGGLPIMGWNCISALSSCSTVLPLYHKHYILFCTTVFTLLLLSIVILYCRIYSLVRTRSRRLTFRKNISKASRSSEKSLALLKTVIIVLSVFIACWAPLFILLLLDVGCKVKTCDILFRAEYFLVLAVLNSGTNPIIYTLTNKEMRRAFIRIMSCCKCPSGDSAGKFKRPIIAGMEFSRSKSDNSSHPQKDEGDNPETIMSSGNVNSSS
T2 sequence (P21453 whole entry V132T): as the sequence (P21453 whole entry M124K) above, with K124M, V132T counted along it

For `CCCCCCCCCCCCC/C=C/[C@@H](O)[C@@H](N)COP(=O)(O)O` [S1P, Sphingosine 1-phosphate], the “% WT Emax + s.d.” value (S1P1 mutant M3.32K) was “∞”, the “EC50 + s.d.” value (S1P1 mutant M3.32K) was “∞” and the EC50 (S1P1 mutant V3.40T) was 0.0138 ± 0.0018 µM. It also gave an Emax (S1P1 mutant V3.40T; read-out: % WT Emax + s.d.) of 137%.
